Experimental data reported in US20220009945A1, “NOVEL UREA 6,7-DIHYDRO-4H-THIAZOLE[5,4-C]PYRIDINES ACTIVE AGAINST THE HEPATITIS B VIRUS (HBV)” (AICURIS GMBH & CO. KG, priority 2018, published 2022).
Counter-ions that a name gives are not always drawn.

Test system: HBV
Settings: Hepatitis B virus, HePAD38, 144 h, read-out: Cell Activity

Compound | EC50 [nM]
Nc1nc2c(s1)CN(C(=O)Nc1ccc(F)c(Cl)c1)CC2 [Example 1, 2-amino -N-(3-chloro-4-fluorophenyl)-4H,5H,6H,7H-[1,3] thiazolo[5,4-c]pyridine-5-carboxamide] | < 1000
O=C(Nc1ccc(F)c(Cl)c1)N1CCc2nc(N[C@H]3C[C@H](O)C3)sc2C1 [Example 2, N-(3-chloro-4-fluorophenyl)-2-{[(1r,3r)-3-hydroxycyclobutyl]amino}-4H,5H,6H,7H-[1,3]thiazolo[5,4-c]pyridine-5-carboxamide] | < 1000
O=C(Nc1ccc(F)c(Cl)c1)N1CCc2nc(NC3(CO)CCC3)sc2C1 [Example 3, N-(3-chloro-4-fluorophenyl)-2-{[1-(hydroxymethyl)cyclobutyl]amino}-4H,5H,6H,7H-[1,3]thiazolo[5,4-c]pyridine-5-carboxamide] | < 1000
O=C(Nc1ccc(F)c(Cl)c1)N1CCc2nc(NC3CCOC3)sc2C1 (stereo not drawn) [Example 4, N-(3-chloro-4-fluorophenyl)-2-[(oxolan-3-yl)amino]-4H,5H,6H,7H-[1,3]thiazolo[5,4-c]pyridine-5-carboxamide] | < 1000
O=C(Nc1ccc(F)c(Cl)c1)N1CCc2nc(NCC3CCOC3)sc2C1 (stereo not drawn) [Example 5, N-(3-chloro-4-fluorophenyl)-2-{[(oxolan-3-yl)methyl]amino}-4H,5H,6H,7H-[1,3]thiazolo [5,4-c]pyridine-5-carboxamide] | < 1000
O=C(Nc1ccc(F)c(Cl)c1)N1CCc2nc(NCC3(O)CCC3)sc2C1 [Example 6, N-(3-chloro-4-fluorophenyl)-2-{[(1-hydroxycyclobutyl)methyl]amino}-4H,5H,6H,7H-[1,3]thiazolo[5,4-c]pyridine-5-carboxamide] | < 1000
O=C(Nc1ccc(F)c(Cl)c1)N1CCc2nc(N[C@H]3CC[C@@H](O)CC3)sc2C1 [Example 7, N-(3-chloro-4-fluorophenyl)-2-{[(1s,4s)-4-hydroxycyclohexyl]amino}-4H,5H,6H,7H-[1,3]thiazolo[5,4-c]pyridine-5-carboxamide] | < 1000
CN1CCC(C(=O)Nc2nc3c(s2)CN(C(=O)Nc2ccc(F)c(Cl)c2)CC3)CC1 [Example 8, N-{5-[(3-chloro-4-fluorophenyl)carbamoyl]-4H,5H,6H,7H-[1,3]thiazolo[5,4-c]pyridin-2-yl}-1-methylpiperidine-4-carboxamide formate] | < 1000
O=C(Nc1ccc(F)c(Cl)c1)N1CCc2nc(NCC3(O)CC(F)(F)C3)sc2C1 [Example 9, N-(3-chloro-4-fluorophenyl)-2-{[(3,3-difluoro-1-hydroxycyclobutyl)methyl]amino}-4H,5H,6H,7H-[1,3]thiazolo[5,4-c]pyridine-5-carboxamide] | < 1000
O=C(Nc1nc2c(s1)CN(C(=O)Nc1ccc(F)c(Cl)c1)CC2)C1CCOC1 (stereo not drawn) [Example 10, N-(3-chloro-4-fluorophenyl)-2-(oxolane-3-amido)-4H,5H,6H,7H-[1,3]thiazolo[5,4-c]pyridine-5-carboxamide] | < 1000
O=C(Nc1nc2c(s1)CN(C(=O)Nc1ccc(F)c(Cl)c1)CC2)C1CCOCC1 [Example 11, N-(3-chloro-4-fluorophenyl)-2-(oxane-4-amido)-4H,5H,6H,7H-[1,3]thiazolo[5,4-c]pyridine-5-carboxamide] | < 1000
O=C(Nc1ccc(F)c(Cl)c1)N1CCc2nc(NCC3(O)CC3)sc2C1 [Example 12, N-(3-chloro-4-fluorophenyl)-2-{[(1-hydroxycyclopropyl)methyl]amino}-4H,5H,6H,7H-[1,3]thiazolo[5,4-c]pyridine-5-carboxamide] | < 1000
Cc1cc(NC(=O)N2CCc3nc(NCC4(O)CCC4)sc3C2)ccc1F [Example 13, N-(4-fluoro-3-methylphenyl)-2-{[(1-hydroxycyclobutyl)methyl]amino}-4H,5H,6H,7H-[1,3]thiazolo[5,4-c]pyridine-5-carboxamide] | < 1000
N#Cc1cc(NC(=O)N2CCc3nc(NCC4(O)CCC4)sc3C2)ccc1F [Example 14, N-(3-cyano-4-fluorophenyl)-2-{[(1-hydroxycyclobutyl)methyl]amino}-4H,5H,6H,7H-[1,3]thiazolo[5,4-c]pyridine-5-carboxamide] | < 1000
O=C(Nc1nc2c(s1)CN(C(=O)Nc1ccc(F)c(Cl)c1)CC2)C1CCC(O)CC1 (stereo not drawn) [Example 15, N-(3-chloro-4-fluorophenyl)-2-(4-hydroxycyclohexaneamido)-4H,5H,6H,7H-[1,3]thiazolo[5,4-c]pyridine-5-carboxamide] | < 1000
O=C(Nc1ccnc(C(F)F)c1)N1CCc2nc(N[C@H]3C[C@H](O)C3)sc2C1 [Example 16, N-[2-(difluoromethyl)pyridin-4-yl]-2-{[(1r,3r)-3-hydroxycyclobutyl]amino}-4H,5H,6H,7H-[1,3]thiazolo[5,4-c]pyridine-5-carboxamide] | 1000 to 10000
O=C(Nc1ccc(F)c(Cl)c1)N1CCc2nc(NS(=O)(=O)C3CC3)sc2C1 [Example 17, N-(3-chloro-4-fluorophenyl)-2-cyclopropanesulfonamido-4H,5H,6H,7H-[1,3]thiazolo[5,4-c]pyridine-5-carboxamide] | 1000 to 10000
CC1(S(=O)(=O)Nc2nc3c(s2)CN(C(=O)Nc2ccc(F)c(Cl)c2)CC3)CC1 [Example 18, N-(3-chloro-4-fluorophenyl)-2-(1-methylcyclopropanesulfonamido)-4H,5H,6H,7H-[1,3]thiazolo[5,4-c]pyridine-5-carboxamide] | 1000 to 10000
O=C(Nc1ccnc(C(F)F)c1)N1CCc2nc(NCC3(O)CCC3)sc2C1 [Example 19, N-[2-(difluoromethyl)pyridin-4-yl]-2-{[(1-hydroxycyclobutyl)methyl]amino}-4H,5H,6H,7H-[1,3]thiazolo[5,4-c]pyridine-5-carboxamide] | 1000 to 10000
O=C(Nc1ccc(F)c(Cl)c1)N1CCc2nc(NC(=O)[C@H]3C[C@H](O)C3)sc2C1 [Example 20, N-(3-chloro-4-fluorophenyl)-2-[(1r,3r)-3-hydroxycyclobutaneamido]-4H,5H,6H,7H-[1,3]thiazolo[5,4-c]pyridine-5-carboxamide] | < 1000
C[C@H]1Cc2nc(NC(=O)[C@H]3C[C@H](O)C3)sc2CN1C(=O)Nc1ccc(F)c(Cl)c1 [Example 21, (6S)-N-(3-chloro-4-fluorophenyl)-6-methyl-2-[(1r,3r)-3-hydroxycyclobutaneamido]-4H,5H,6H,7H-[1,3]thiazolo[5,4-c]pyridine-5-carboxamide] | < 1000
